From patent US6096749A, “Pyrrolopyrimidine derivatives having pharmacological activity” (Novartis Corporation, priority 1994, dated 2000)
Where “and” joins values, the source holds several entries; their conditions need not be identical. Equal entries are not always repeated. Where two headings read alike, the source gives them in different places.

What was measured:
EGF-R ICD = target: T1, EGF-R ICD (Homo sapiens, UniProt P00533); assay: Inhibitory action on EGF-R ICD (intracellular domains of the EGF receptor) tyrosine protein kinase, Test A; assay type: biochemical; settings: concentration at which inhibition is half the maximum inhibition
T1 construct: recombinant intracellular domains of the EGF-receptor (EGF-R ICD)
T1 sequence (P00533 669-1210 limits assumed): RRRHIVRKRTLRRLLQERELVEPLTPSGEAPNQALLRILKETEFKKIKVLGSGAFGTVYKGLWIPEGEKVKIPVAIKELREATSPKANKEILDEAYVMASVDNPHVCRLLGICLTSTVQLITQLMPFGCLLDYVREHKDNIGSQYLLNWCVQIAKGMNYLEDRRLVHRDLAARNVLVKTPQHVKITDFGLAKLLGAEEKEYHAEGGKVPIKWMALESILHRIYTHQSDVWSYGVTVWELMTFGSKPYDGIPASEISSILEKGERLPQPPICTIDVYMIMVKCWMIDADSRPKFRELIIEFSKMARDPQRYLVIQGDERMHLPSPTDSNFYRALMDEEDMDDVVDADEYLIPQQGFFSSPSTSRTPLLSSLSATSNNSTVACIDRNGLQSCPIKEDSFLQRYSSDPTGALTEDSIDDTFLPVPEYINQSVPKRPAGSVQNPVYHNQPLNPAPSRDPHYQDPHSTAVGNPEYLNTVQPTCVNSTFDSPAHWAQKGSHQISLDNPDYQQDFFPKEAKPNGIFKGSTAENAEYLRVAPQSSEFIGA
Excerpt: Test A) Inhibitory action on EGF-R ICD (ICD=intracellular domains): The test system is described above. The result is given as IC50 in μM (concentration of active ingredient at which inhibition is half the maximum inhibition).
The test system is described above. The result is given as IC50 in μM (concentration of active ingredient at which inhibition is half the maximum inhibition).

[1] = tested on: BALB/c mouse keratinocyte cell line (MK cells); assay: Inhibitory action on the growth of MK cells (BALB/MK), Test B; assay type: cell-based; settings: 72 h, three days incubation, methylene blue staining, Examples 16 to 22
Procedure: The test compounds (dissolved in DMSO) are added in a series of concentrations (dilution series), so that the final concentration of DMSO is not grater than 1% (v/v). […] The growth of the MK cells is measured by means of methylene blue staining: after incubation, the cells are fixed with glutaraldehyde, washed with water and stained with 0.05% methylene blue. […] IC50 values are calculated by means of a computer-assisted system using the formula:
IC50 =(ODtest -ODstart)/(ODcontrol
Test B) Inhibitory action on the growth of MK cells: The test system is described in detail above. The result is given as IC50 in μM (concentration of active ingredient at which inhibition is half the maximum inhibition).

[2] = Example 32, table 3, read-out: IC50 (inhibitory action on the intracellular domains of EGF-R (ICD))
[3] = Examples 16 to 22, read-out: IC50 (Test A: inhibitory action on EGF-R ICD)

Row | IC50 (EGF-R ICD; [2]) | IC50 (EGF-R ICD; [3]) [nM] | Compound | IC50 [1] [nM]
1 | 25 nM | – | Cc1[nH]c2ncnc(Nc3cccc(Br)c3)c2c1C [Example 2, 4-(m-Bromoanilino)-5,6-dimethyl-7H-pyrrolo[2,3-d]pyrimidine] | –
2 | 550 nM | – | Cc1[nH]c2ncnc(Nc3cccc(F)c3)c2c1C [Example 3, 4-(m-Fluoroanilino)-5,6-dimethyl-7H-pyrrolo[2,3-d]pyrimidine] | –
3 | 170 nM | – | Cc1[nH]c2ncnc(Nc3cc(Cl)cc(Cl)c3)c2c1C [Example 4, 4-(m,m-Dichloroanilino)-5,6-dimethyl-7H-pyrrolo[2,3-d]pyrimidine] | –
4 | 570 nM | – | Cc1cccc(Nc2ncnc3[nH]c(C)c(C)c23)c1 [Example 5, 4-(m-Methylanilino)-5,6-dimethyl-7H-pyrrolo[2,3-d]pyrimidine] | –
5 | 46 nM | – | Brc1cccc(Nc2ncnc3[nH]c4c(c23)CCCC4)c1 [Example 8, 4-(m-Bromoanilino)-5,6-tetramethylene-7H-pyrrolo[2,3-d]pyrimidine] | –
6 | 200 nM | – | Fc1cccc(Nc2ncnc3[nH]c4c(c23)CCCC4)c1 [Example 9, 4-(m-Fluoroanilino)-5,6-tetramethylene-7H-pyrrolo[2,3-d]pyrimidine] | –
7 | 820 nM | – | Cc1cccc(Nc2ncnc3[nH]c4c(c23)CCCC4)c1 [Example 10, 4-(m-Methylanilino)-5,6-tetramethylene-7H-pyrrolo[2,3-d]pyrimidine] | –
8 | 350 nM | – | COc1cccc(Nc2ncnc3[nH]c4c(c23)CCCC4)c1 [Example 11, 4-(m-Methoxyanilino)-5,6-tetramethylene-7H-pyrrolo[2,3-d]pyrimidine] | –
9 | 96 nM and 33 nM | – | Brc1cccc(Nc2ncnc3[nH]c(-c4ccccc4)c(-c4ccccc4)c23)c1 [Example 13, 4-(m-Bromoanilino)-5,6-diphenyl-7H-pyrrolo[2,3-d]pyrimidine] | –
10 | 360 nM | – | FC(F)(F)c1cccc(Nc2ncnc3[nH]c4c(c23)CCCC4)c1 [Example 14, 4-(m-Trifluoromethylanilino)-5,6-tetramethylene-7H-pyrrolo[2,3-d]-pyrimidine] | –
11 | 150 nM | – | Clc1ccc(Nc2ncnc3[nH]c4c(c23)CCCC4)cc1Cl [Example 15, 4-(m,p-Dichloroanilino)-5,6-tetramethylene-7H-pyrrolo[2,3-d]pyrimidine] | –
12 | – | 1900 | Cc1ccc(Nc2ncnc3[nH]c(C)c(C)c23)cc1 [Example 17, 4-(p-Methylanilino)-5,6-dimethyl-7H-pyrrolo[2,3-d]pyrimidine] | 24600
13 | – | 70 | Cc1[nH]c2ncnc(Nc3ccc(Cl)c(Cl)c3)c2c1C [Example 18, 4-(m,p-Dichloroanilino)-5,6-dimethyl-7H-pyrrolo[2,3.d]pyrimidine] | 34800
14 | – | 1600 | Cc1[nH]c2ncnc(Nc3ccccc3F)c2c1C [Example 19, 4-(o-Fluoroanilino)-5,6-dimethyl-7H-pyrrolo[2,3-d]pyrimidine] | 49300
15 | – | 560 | Cc1[nH]c2ncnc(Nc3ccc(F)cc3)c2c1C [Example 20, 4-(p-Fluoroanilino)-5,6-dimethyl-7H-pyrrolo[2,3-d]pyrimidine] | 13100
16 | – | 110 | Cc1ccc(Nc2ncnc3[nH]c4c(c23)CCCC4)cc1 [Example 22, 4-(4-Methylanilino)-5,6-tetramethylene-7H-pyrrolo[2,3-d]pyrimidine] | 13900
17 | 15 nM | – | COc1ccc(-c2cc3c(Nc4cccc(Cl)c4)ncnc3[nH]2)cc1 [Example 26, 4(m-Chloroanilino)-6-(4-methoxyphenyl)-7H-pyrrolo[2,3-d]pyrimidine] | –
18 | 33 nM | – | COc1ccc(OC)c(-c2cc3c(Nc4cccc(Cl)c4)ncnc3[nH]2)c1 [Example 27, 4-(m-Chloroanilino)-6-(2,5-dimethoxyphenyl)-7H-pyrrolo[2,3-d]-pyrimidine] | –
19 | 13 nM | – | Clc1cccc(Nc2ncnc3[nH]c(-c4ccccc4)cc23)c1 [Example 28, 4-(m-Chloroanilino)-6-(phenyl)-7H-pyrrolo[2,3-d]pyrimidine] | –
20 | 430 nM | – | COc1ccc(-c2[nH]c3ncnc(Nc4cccc(Cl)c4)c3c2C)cc1 [Example 29, 4-(m-Chloroanilino)-5-methyl-6-(4-methoxyphenyl)-7H-pyrrolo[2,3-d]-pyrimidine] | –
21 | 1770 nM | – | COc1cccc(-c2cc3c(Nc4cccc(Cl)c4)ncnc3[nH]2)c1 [Example 30, 4-(m-Chloroanilino)-6-(3-methoxyphenyl)-7H-pyrrolo[2,3-d]pyrimidine] | –
22 | 19 nM | – | COc1ccccc1-c1cc2c(Nc3cccc(Cl)c3)ncnc2[nH]1 [Example 31, 4-(m-Chloroanilino)-6-(2-methoxyphenyl)-7H-pyrrolo[2,3-d]pyrimidine] | –
